# Assay results taken from BindingDB's records for doi:10.1016/j.bmcl.2010.08.118 (Roche Palo Alto, 2010).
# Test: Inhibition of CCR5 by cell-cell fusion inhibition assay
row,SMILES,IC50 [nM]
1,"Cc1ncnc(C)c1C(=O)N1C[C@H]2CN(CCC(c3ccccc3)C3CN(S(=O)(=O)C4CC4)C3)C[C@H]2C1 (stereo partly drawn) [((3aR,6aS)-5-(3-(1-(cyclopropylsulfonyl)azetidin-3-yl)-3-phenylpropyl)hexahydropyrrolo[3,4-c]pyrrol-2(1H)-yl)(4,6-dimethylpyrimidin-5-yl)methanone]",313
2,"CCC(=O)N1CCC(C(CCN2C[C@@H]3CN(C(=O)c4c(C)ncnc4C)C[C@@H]3C2)c2ccccc2)CC1 (stereo partly drawn) [1-(4-(3-((3aR,6aS)-5-(4,6-dimethylpyrimidine-5-carbonyl)hexahydropyrrolo[3,4-c]pyrrol-2(1H)-yl)-1-phenylpropyl)piperidin-1-yl)propan-1-one]",> 5000
3,"Cc1ncnc(C)c1C(=O)N1C[C@H]2CN(CCC(c3ccccc3)C3CCN(CC(F)(F)F)CC3)C[C@H]2C1 (stereo partly drawn) [(4,6-dimethylpyrimidin-5-yl)((3aR,6aS)-5-(3-phenyl-3-(1-(2,2,2-trifluoroethyl)piperidin-4-yl)propyl)hexahydropyrrolo[3,4-c]pyrrol-2(1H)-yl)methanone]",34
4,"COC(=O)N1CCC(C(CCN2C[C@@H]3CN(C(=O)c4c(C)ncnc4C)C[C@@H]3C2)c2ccccc2)CC1 (stereo partly drawn) [methyl 4-(3-((3aR,6aS)-5-(4,6-dimethylpyrimidine-5-carbonyl)hexahydropyrrolo[3,4-c]pyrrol-2(1H)-yl)-1-phenylpropyl)piperidine-1-carboxylate]",744
5,"Cc1ncnc(C)c1C(=O)N1C[C@H]2CN(CCC(c3ccccc3)C3CCN(C(=O)C(C)C)CC3)C[C@H]2C1 (stereo partly drawn) [1-(4-(3-((3aR,6aS)-5-(4,6-dimethylpyrimidine-5-carbonyl)hexahydropyrrolo[3,4-c]pyrrol-2(1H)-yl)-1-phenylpropyl)piperidin-1-yl)-2-methylpropan-1-one]",> 5000
6,"Cc1ncnc(C)c1C(=O)N1C[C@H]2CN(CCC(c3cccc(F)c3)C3CCN(CC(F)F)CC3)C[C@H]2C1 (stereo partly drawn) [((3aR,6aS)-5-(3-(1-(2,2-difluoroethyl)piperidin-4-yl)-3-(3-fluorophenyl)propyl)hexahydropyrrolo[3,4-c]pyrrol-2(1H)-yl)(4,6-dimethylpyrimidin-5-yl)methanone]",11
7,"Cc1ncnc(C)c1C(=O)N1C[C@H]2CN(CCC(c3ccccc3)C3CN(C(=O)C4CCCC4)C3)C[C@H]2C1 (stereo partly drawn) [((3aR,6aS)-5-(3-(1-(cyclopentanecarbonyl)azetidin-3-yl)-3-phenylpropyl)hexahydropyrrolo[3,4-c]pyrrol-2(1H)-yl)(4,6-dimethylpyrimidin-5-yl)methanone]",2830
8,"Cc1ncnc(C)c1C(=O)N1C[C@H]2CN(CCC(c3ccccc3)C3CCN(S(=O)(=O)C(C)C)CC3)C[C@H]2C1 (stereo partly drawn) [(4,6-dimethylpyrimidin-5-yl)((3aR,6aS)-5-(3-(1-(isopropylsulfonyl)piperidin-4-yl)-3-phenylpropyl)hexahydropyrrolo[3,4-c]pyrrol-2(1H)-yl)methanone]",99
9,"Cc1ncnc(C)c1C(=O)N1C[C@H]2CN(CCC(c3ccccc3)C3CCN(C(=O)NC(C)C)CC3)C[C@H]2C1 (stereo partly drawn) [4-(3-((3aR,6aS)-5-(4,6-dimethylpyrimidine-5-carbonyl)hexahydropyrrolo[3,4-c]pyrrol-2(1H)-yl)-1-phenylpropyl)-N-isopropylpiperidine-1-carboxamide]",> 5000
10,"Cc1ncnc(C)c1C(=O)N1C[C@H]2CN(CCC(c3ccccc3)C3CCN(CC(F)F)CC3)C[C@H]2C1 (stereo partly drawn) [((3aR,6aS)-5-(3-(1-(2,2-difluoroethyl)piperidin-4-yl)-3-phenylpropyl)hexahydropyrrolo[3,4-c]pyrrol-2(1H)-yl)(4,6-dimethylpyrimidin-5-yl)methanone]",137
11,"Cc1ncnc(C)c1C(=O)N1C[C@H]2CN(CCC(c3ccccc3)C3CN(CC(F)(F)F)C3)C[C@H]2C1 (stereo partly drawn) [(4,6-dimethylpyrimidin-5-yl)((3aR,6aS)-5-(3-phenyl-3-(1-(2,2,2-trifluoroethyl)azetidin-3-yl)propyl)hexahydropyrrolo[3,4-c]pyrrol-2(1H)-yl)methanone]",> 5000
12,"Cc1ncnc(C)c1C(=O)N1C[C@H]2CN(CCC(c3ccccc3)C3CN(S(=O)(=O)C(C)C)C3)C[C@H]2C1 (stereo partly drawn) [(4,6-dimethylpyrimidin-5-yl)((3aR,6aS)-5-(3-(1-(isopropylsulfonyl)azetidin-3-yl)-3-phenylpropyl)hexahydropyrrolo[3,4-c]pyrrol-2(1H)-yl)methanone]",93
13,"Cc1ncnc(C)c1C(=O)N1C[C@H]2CN(CCC(c3ccccc3)C3CN(C(=O)CC(C)C)C3)C[C@H]2C1 (stereo partly drawn) [1-(3-(3-((3aR,6aS)-5-(4,6-dimethylpyrimidine-5-carbonyl)hexahydropyrrolo[3,4-c]pyrrol-2(1H)-yl)-1-phenylpropyl)azetidin-1-yl)-3-methylbutan-1-one]",> 5000
14,"Cc1ncnc(C)c1C(=O)N1C[C@H]2CN(CCC(c3cc(F)cc(F)c3)C3CN(S(=O)(=O)C4CC4)C3)C[C@H]2C1 (stereo partly drawn) [((3aR,6aS)-5-(3-(1-(cyclopropylsulfonyl)azetidin-3-yl)-3-(3,5-difluorophenyl)propyl)hexahydropyrrolo[3,4-c]pyrrol-2(1H)-yl)(4,6-dimethylpyrimidin-5-yl)methanone]",63
15,"Cc1ncnc(C)c1C(=O)N1C[C@H]2CN(CCC(c3ccccc3)C3CCN(C(=O)CC(C)C)CC3)C[C@H]2C1 (stereo partly drawn) [1-(4-(3-((3aR,6aS)-5-(4,6-dimethylpyrimidine-5-carbonyl)hexahydropyrrolo[3,4-c]pyrrol-2(1H)-yl)-1-phenylpropyl)piperidin-1-yl)-3-methylbutan-1-one]",2820
16,"Cc1ncnc(C)c1C(=O)N1C[C@H]2CN(CCC(c3cccc(F)c3)C3CN(S(=O)(=O)C4CC4)C3)C[C@H]2C1 (stereo partly drawn) [((3aR,6aS)-5-(3-(1-(cyclopropylsulfonyl)azetidin-3-yl)-3-(3-fluorophenyl)propyl)hexahydropyrrolo[3,4-c]pyrrol-2(1H)-yl)(4,6-dimethylpyrimidin-5-yl)methanone]",30
17,"Cc1cc(=O)oc(C)c1C(=O)N1C[C@H]2CN(CCC(c3ccccc3)C3CCN(S(C)(=O)=O)CC3)C[C@H]2C1 (stereo partly drawn) [4,6-dimethyl-5-((3aR,6aS)-5-(3-(1-(methylsulfonyl)piperidin-4-yl)-3-phenylpropyl)octahydropyrrolo[3,4-c]pyrrole-2-carbonyl)-2H-pyran-2-one]",8
